Tests used:
[1] = system: KKA^y mice; experiment: Hypoglycemic and hypolipidemic (hypotriglyceridemic) activities in mice; assay type: in vivo; conditions: four days; for Hypoglycemic effect (%) / Hypolipidemic effect (%): 0.01% in powdered diet; for Hypoglycemic effect (%): reduction rate of plasma glucose compared with non-treatment group; for Hypolipidemic effect (%): reduction rate of plasma triglyceride compared with non-treatment group
Method: Test compound was mixed in a powdered diet (CE-2, Japan Clea) at the concentration of 0.01%, and freely given to KKA^y mice (9 to 12 weeks old, 5 mice in a group) a model of obese and non-insulin-dependent diabetes mellitus (Type 2 diabetes mellitus), for four days. […] During the experimental period, water was given freely Blood was obtained from orbital venous plexus, and glucose and triglyceride levels in plasma were determined enzymatically using L type Wako Glu2 (Wako Pure Chemical Industries, Ltd.) and L type Wako TG·H (Wako Pure Chemical Industries, Ltd.), respectively.
Test compound was mixed in a powdered diet (CE-2, Japan Clea) at the concentration of 0.01%, and freely given to KKA^y mice (9 to 12 weeks old, 5 mice in a group), a model of obese and.non-insulin-dependent diabetes mellitus (Type 2 diabtes mellitus), for four days. During this period, water was given freely. Blood was obtained from orbital venous plexus, and glucose and triglyceride levels in plasma were determined enzymatically using L type Wako Glu2 (Wako Pure Chemical Industries, Ltd.) and L type Wako TG·H (Wako Pure Chemical Industries, Ltd.), respectively.
The value of each treatment group is represented as reduction rate (%) compared with the non-treatment group, which is shown in [Table 2].

[2] = target: T1, PPARγ-RXRα heterodimer (Homo sapiens, UniProt P19793+P37231); experiment: PPARγ-RXRα heterodimer ligand activity (luciferase reporter in PPARγ:RXRα:4ERPP/CHO-K1 cells); assay type: cell-based; conditions: for EC50: luciferase fold induction, 48 hours
T1 construct: expressed in transfected cells; host or cells: CHO-K1
T1 sequence (P37231 1-477 isoform P37231-2): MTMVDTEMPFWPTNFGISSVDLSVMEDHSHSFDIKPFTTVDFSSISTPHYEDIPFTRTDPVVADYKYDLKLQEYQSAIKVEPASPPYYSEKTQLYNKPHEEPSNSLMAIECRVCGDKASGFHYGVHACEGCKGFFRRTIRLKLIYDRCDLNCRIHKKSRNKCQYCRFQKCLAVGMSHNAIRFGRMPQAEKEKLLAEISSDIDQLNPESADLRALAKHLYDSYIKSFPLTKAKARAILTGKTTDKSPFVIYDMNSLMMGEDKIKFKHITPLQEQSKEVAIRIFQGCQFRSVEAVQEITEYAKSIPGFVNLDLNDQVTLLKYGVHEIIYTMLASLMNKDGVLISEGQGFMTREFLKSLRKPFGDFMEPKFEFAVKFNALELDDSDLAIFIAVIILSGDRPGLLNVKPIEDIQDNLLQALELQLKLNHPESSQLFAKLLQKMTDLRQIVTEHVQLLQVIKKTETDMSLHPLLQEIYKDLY
T1 sequence (P19793 1-462): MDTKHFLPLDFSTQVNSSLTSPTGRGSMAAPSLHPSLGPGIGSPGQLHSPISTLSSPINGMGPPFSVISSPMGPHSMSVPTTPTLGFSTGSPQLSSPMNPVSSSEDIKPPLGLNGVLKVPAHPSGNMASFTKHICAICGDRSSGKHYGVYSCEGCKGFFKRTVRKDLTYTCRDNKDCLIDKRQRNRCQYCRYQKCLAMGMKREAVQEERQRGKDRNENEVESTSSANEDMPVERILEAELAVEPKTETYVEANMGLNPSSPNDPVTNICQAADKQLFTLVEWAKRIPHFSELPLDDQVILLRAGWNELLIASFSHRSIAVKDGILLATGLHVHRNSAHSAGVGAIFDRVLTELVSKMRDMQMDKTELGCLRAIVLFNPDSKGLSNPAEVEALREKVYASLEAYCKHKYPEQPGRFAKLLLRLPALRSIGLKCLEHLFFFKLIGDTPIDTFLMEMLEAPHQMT
Method: (§1) PPAR γ:RXR α:4ERPP/CHO-K1 cells obtained in Reference Example 5 were cultured in HAM F12 medium (produced by NISSUI SEIYAKU) containing 10% Fetal bovine serum (produced by Life Technologies, Inc., USA) and then inoculated to a 96-well white plate (produced by Corning Costar Corporation, USA) at the density of 2×10^4 cells/well, and cultured in a CO2 gas incubator at 37° C. overnight.
(§2) After washing the 96 well white plate with PBS (Phosphate-buffered saline), 90 μl of HAM F12 medium containing 0.1% fatty acid-free bovine serum albumin (BSA) and 10 μl of test compound were added to each well, and the plate was cultured in a CO2 gas incubator at 37° C. for 48 hours. After removing the medium, 40 μl of PIKKAGENE 7.5 (produced by Wako Pure Chemical Industries, Ltd.) was added to the well. After stirring, the luciferase activity was determined using Lumistar (produced by BMG Labtechnologies GmbH, Germany).
(§3) A fold induction was calculated based on the luciferase activity of each test compound by estimating the luciferase activity in the non-treatment group as 1. The values of the test compound concentration and the fold induction were used to calculate the EC50 values, the effective concentration of a test compound for 50% of the maximum fold induction, by using PRISM 2.01 (produced by GraphPad Software Inc. USA).
as §1, with “PPARγ:RXRα:4ERPP/CHO-K1” for “PPAR γ:RXR α:4ERPP/CHO-K1”, “Reference.” for “Reference”
as §2, with “7.5 produced” for “7.5 (produced”, “Labtechnologies Gmbh,” for “Labtechnologies GmbH,”
as §3, with “maximum” for “maximum fold”, “USA). The results are shown in [Table 1].” for “USA).”

Compound: O=C(O)c1ccc(-c2nc(-c3ccc(C(F)(F)F)cc3)co2)cc1 [Example 9, 4-[4-(4-trifluoromethylphenyl)-2-oxazolyl]benzoic acid]
- melting point: 258 to 259 °C
- Hypoglycemic effect (%) [1]: 51%
- Hypolipidemic effect (%) [1]: 67%
- EC50 [2]: 23 nM

Compound: O=C(O)c1ccc(-c2nc(-c3ccc(Cl)cc3)cs2)cc1 [Example 52, 4-[4-(4-chlorophenyl)-2-thiazolyl]benzoic acid]
- hypoglycemic activity ([1]; 0.01% in diet, dose ranging from 0.1 to 50 mg/kg/day, plasma glucose): potent
- hypolipidemic (hypotriglyceridemic) activity ([1]; 0.01% in diet, dose ranging from 0.1 to 50 mg/kg/day, plasma triglyceride): potent
- PPARγ-RXRα heterodimer ligand activity ([2]; at a concentration ranging from 10^−5 M to 10^−9 M): potent

Compound: O=C(O)c1ccc(-c2nc(-c3ccc(C(F)(F)F)cc3)cs2)cc1 [Example 55, 4-[4-(4-trifluoromethylphenyl)-2-thiazolyl]benzoic acid]
- melting point: 164 to 165 °C
- Hypoglycemic effect (%) [1]: 70%
- Hypolipidemic effect (%) [1]: 86%
- EC50 [2]: 68 nM

Compound: O=C(O)c1ccc(-c2nc(-c3ccc(OC(F)(F)F)cc3)cs2)cc1 [Example 64, 4-[4-(4-trifluoromethoxylphenyl)-2-thiazolyl]benzoic acid]
- melting point: 245 to 246 °C
- Hypoglycemic effect (%) [1]: 68%
- Hypolipidemic effect (%) [1]: 88%
- EC50 [2]: 310 nM

Compound: O=C(O)c1ccc(-c2cnc(-c3ccc(C(F)(F)F)cc3)o2)cc1 [Example 110, 4-[2-(4-trifluoromethylphenyl)-5-oxazolyl]benzoic acid]
- melting point: 253 to 254 °C
- Hypoglycemic effect (%) [1]: 73%
- Hypolipidemic effect (%) [1]: 87%
- EC50 [2]: 48 nM

Compound: O=C(O)c1ccc(-c2cnc(-c3ccc(C(F)(F)F)cc3)s2)cc1 [Example 113, 4-[2-(4-trifluoromethylphenyl)-5-thiazolyl]benzoic acid]
- Hypoglycemic effect (%) [1]: 45%
- Hypolipidemic effect (%) [1]: 53%
- EC50 [2]: 60 nM
